Literature values in US6544543B1, “Periodic constriction of vessels to treat ischemic tissue” (Advanced Cardiovascular Systems, Inc., priority 2000, dated 2003).

Assays:
[1] = avidin tetramer binds four biotin molecules in solution, noncovalent interaction
[2] = avidin tetramer-biotin noncovalent interaction

binding constant [1]: about 10^15 M^−1
Substance: avidin: polypeptide of at least 128 amino acid residues, forms a tetramer, binds four biotin molecules; member of the affinity pair
half-life in vivo [2]: about 89 days
